Results on 30 compounds are retold here after patent US10759783B2, “Biaryl inhibitors of Bruton'S tyrosine kinase” (BIOGEN MA INC., priority 2013, dated 2020).

T1 sequence (Q06187 whole entry): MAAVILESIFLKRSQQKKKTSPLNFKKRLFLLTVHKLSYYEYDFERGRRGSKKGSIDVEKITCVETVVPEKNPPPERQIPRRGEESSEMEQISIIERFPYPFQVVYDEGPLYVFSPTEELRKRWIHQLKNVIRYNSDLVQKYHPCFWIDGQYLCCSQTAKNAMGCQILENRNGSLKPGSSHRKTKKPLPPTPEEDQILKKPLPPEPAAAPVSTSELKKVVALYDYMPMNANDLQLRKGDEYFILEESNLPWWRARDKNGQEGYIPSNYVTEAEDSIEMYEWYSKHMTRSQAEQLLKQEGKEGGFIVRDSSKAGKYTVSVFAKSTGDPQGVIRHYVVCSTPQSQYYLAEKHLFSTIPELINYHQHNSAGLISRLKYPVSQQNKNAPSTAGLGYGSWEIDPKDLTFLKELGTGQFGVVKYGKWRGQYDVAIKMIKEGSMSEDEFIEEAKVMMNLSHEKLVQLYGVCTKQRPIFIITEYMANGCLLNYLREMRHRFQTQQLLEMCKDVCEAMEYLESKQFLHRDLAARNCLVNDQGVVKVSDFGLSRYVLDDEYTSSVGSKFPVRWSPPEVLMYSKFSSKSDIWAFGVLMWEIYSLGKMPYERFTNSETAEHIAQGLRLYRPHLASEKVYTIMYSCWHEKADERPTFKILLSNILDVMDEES
Chain of BTK (phospho-BTK) in human whole blood (Q06187 whole entry): as above

The first test has as its target T1, BTK enzyme (Homo sapiens, UniProt Q06187).
T1 construct: purchased Upstate 14-552
The experiment in a line: In vitro BTK kinase assay: BTK-POLYGAT-LS assay. It is filed as biochemical. The following applies: ATP 10 μM, read-out: IC50 (10uMATP). The protocol: The purpose of the BTK in vitro assay is to determine compound potency against BTK through the measurement of IC50. […] For a typical assay, a 24 μL aliquot of a ATP/peptide master mix (final concentration; ATP 10 μM, polyGAT 100 nM) in kinase buffer (10 mM Tris-HCl pH 7.5, 10 mM MgCl2, 200 μM Na3PO4, 5 mM DTT, 0.01% Triton X-100, and 0.2 mg/ml casein) is added to each well. […] The assay is incubated for 30 minutes before being stopped with 28 μL of a 50 mM EDTA solution. […] The plate is covered and incubated for 45 minutes at room temperature.
For `CCNc1nccc(-c2ccc(CNC(=O)c3cnc(C(C)(C)C)s3)c(C)c2)n1` [Example I-34, 2-(tert-butyl)-N-(4-(2-(ethylamino)pyrimidin-4-yl)-2-methylbenzyl)thiazole-5-carboxamide], the concentration for half-maximal inhibition (IC50) fell in the range of 0.01 to 0.099 µM.
For the compound `Cn1cc(Nc2nccc(-c3ccc(CNC(=O)c4cc5c(s4)CCOC5)c(F)c3)n2)cn1` [Example I-117, N-(2-fluoro-4-(2-((1-methyl-1H-pyrazol-4-yl)amino)pyrimidin-4-yl)benzyl)-6,7-dihydro-4H-thieno[3,2-c]pyran-2-carboxamide], the IC50 is 0.01 to 0.099 µM.
Same read-out and setting: the result for `Cc1cc(-c2ccnc(N)n2)ccc1CNC(=O)c1cc2c(s1)CCS(=O)(=O)C2` [Example I-138, N-(4-(2-aminopyrimidin-4-yl)-2-methylbenzyl)-6,7-dihydro-4H-thieno[3,2-c]thiopyran-2-carboxamide 5,5-dioxide] reads 1 to 10 µM.
As to `Cc1cc(-c2ccnc(Nc3cnn(C)c3)n2)ccc1CNC(=O)c1cnn(C(C)(C)C)c1` [Example I-154, 1-(tert-butyl)-N-(2-methyl-4-(2-((1-methyl-1H-pyrazol-4-yl)amino)pyrimidin-4-yl)benzyl)-1H-pyrazole-4-carboxamide], the IC50 was less than 0.01 µM.
The same measure, in the same setting: the same measure for `Cc1cc(-c2ccnc(N)n2)ccc1C(C)NC(=O)c1cnc(C(F)(F)F)s1` (stereo not drawn) [Example I-107, N-(1-(4-(2-aminopyrimidin-4-yl)-2-methylphenyl)ethyl)-2-(trifluoromethyl)thiazole-5-carboxamide]: 1 to 10 µM.
The same measure, in the same setting: the same measure for `Cc1cc(-c2ccnc(N)n2)ccc1CNC(=O)c1cnc(C2CC2)s1` [Example I-85, N-(4-(2-aminopyrimidin-4-yl)-2-methylbenzyl)-2-cyclopropylthiazole-5-carboxamide]: 0.01 to 0.099 µM.
With `Cc1cc(-c2ccnc(Nc3ccc(N(C)C)cn3)n2)ccc1CNC(=O)c1cnc(C(C)(C)C)s1` [Example I-61, 2-(tert-butyl)-N-(4-(2-((5-(dimethylamino)pyridin-2-yl)amino)pyrimidin-4-yl)-2-methylbenzyl)thiazole-5-carboxamide], the IC50 fell in the range of 0.01 to 0.099 µM.
The same measure, in the same setting: the same measure for `Cc1cc(-c2ccnc(N)n2)ccc1CNC(=O)c1cnc(C2CCCO2)s1` (stereo not drawn) [Example I-88, N-(4-(2-aminopyrimidin-4-yl)-2-methylbenzyl)-2-(tetrahydrofuran-2-yl)thiazole-5-carboxamide]: 0.1 to 0.999 µM.
Regarding `Cc1cc(-c2ccnc(N[C@@H](C)C3CCCCC3)n2)ccc1CNC(=O)c1cnc(C(C)(C)C)s1` [Example I-28, (S)-2-(tert-butyl)-N-(4-(2-((1-cyclohexylethyl)amino)pyrimidin-4-yl)-2-methylbenzyl)thiazole-5-carboxamide], the IC50 was greater than 10 µM.
Turning to `Cc1cc(-c2cnnc(Nc3cnn(C)c3)c2)ccc1CNC(=O)c1cnc(C(C)(C)C)s1` [Example I-114, 2-(tert-butyl)-N-(2-methyl-4-(6-((1-methyl-1H-pyrazol-4-yl)amino)pyridazin-4-yl)benzyl)thiazole-5-carboxamide], the IC50 is 0.1 to 0.999 µM.
On to `Cc1cc(-c2ccnc(NC(C)c3ccncc3)n2)ccc1CNC(=O)c1cnc(C(C)(C)C)s1` (stereo not drawn) [Example I-29, 2-(tert-butyl)-N-(2-methyl-4-(2-((1-(pyridin-4-yl)ethyl)amino)pyrimidin-4-yl)benzyl)thiazole-5-carboxamide], for which the 50% inhibitory concentration (IC50) lay in the range of 1 to 10 µM.
With `Cc1cc(-c2ccnc(NC3CCN(C)CC3)n2)ccc1CNC(=O)c1cnc(C(C)(C)C)s1` [Example I-25, 2-(tert-butyl)-N-(2-methyl-4-(2-((1-methylpiperidin-4-yl)amino)pyrimidin-4-yl)benzyl)thiazole-5-carboxamide], the IC50 was 1 to 10 µM.
For `Cc1cc(-c2ccnc(Nc3cnn(C)c3)n2)ccc1CNC(=O)c1cn2c(n1)CCCC2` [Example I-156, N-(2-Methyl-4-(2-((1-methyl-1H-pyrazol-4-yl)amino)pyrimidin-4-yl)benzyl)-5,6,7,8-tetrahydroimidazo[1,2-a]pyridine-2-carboxamide], the IC50 lay within 0.1 to 0.999 µM.
For the compound `Cc1cc(-c2ccnc(N)n2)ccc1CNC(=O)c1ccc2c(n1)CCNC2` [Example I-78, N-(4-(2-aminopyrimidin-4-yl)-2-methylbenzyl)-5,6,7,8-tetrahydro-1,6-naphthyridine-2-carboxamide], the IC50 was greater than 10 µM.
For `Cc1cc(-c2ccnc(Nc3cnn(C)c3)n2)ccc1CNC(=O)[C@H]1CC[C@@H](C(F)(F)F)CC1` [Example I-17, cis-N-(2-methyl-4-(2-((1-methyl-1H-pyrazol-4-yl)amino)pyrimidin-4-yl)benzyl)-4-(trifluoromethyl)cyclohexanecarboxamide], the IC50 fell in the range of 0.1 to 0.999 µM.
On the same count and under the same terms, the result for `Nc1nccc(-c2cnc(CNC(=O)c3cc4c(s3)CCCC4)c(F)c2)n1` [Example I-113, N-((5-(2-aminopyrimidin-4-yl)-3-fluoropyridin-2-yl)methyl)-4,5,6,7-tetrahydrobenzo[b]thiophene-2-carboxamide] reads 0.1 to 0.999 µM.
Take `Cc1cc(-c2ccnc(Nc3cnn(C)c3)n2)ccc1CNC(=O)c1cc2n(n1)CCCC2` [Example I-159, N-(2-Methyl-4-(2-((1-methyl-1H-pyrazol-4-yl)amino)pyrimidin-4-yl)benzyl)-4,5,6,7-tetrahydropyrazolo[1,5-a]pyridine-2-carboxamide]: the IC50 was less than 0.01 µM.
With `Cc1cc(-c2ccnc(N[C@H](C)C3CCCCC3)n2)ccc1CNC(=O)c1cnc(C(C)(C)C)s1` [Example I-27, (R)-2-(tert-butyl)-N-(4-(2-((1-cyclohexylethyl)amino)pyrimidin-4-yl)-2-methylbenzyl)thiazole-5-carboxamide], the IC50 was greater than 10 µM.
As for `Cc1cc(-c2ccnc(NCC3CCS(=O)(=O)CC3)n2)ccc1CNC(=O)c1cnc(C(C)(C)C)s1` [Example I-31, 2-(tert-butyl)-N-(4-(2-(((1,1-dioxidotetrahydro-2H-thiopyran-4-yl)methyl)amino)pyrimidin-4-yl)-2-methylbenzyl)thiazole-5-carboxamide], the IC50 was 0.1 to 0.999 µM.
With `C=CC(=O)N(C)Cc1cc(-c2ccnc(N)n2)ccc1CNC(=O)c1cc2c(s1)CCCC2` [Example I-146, N-(4-(2-aminopyrimidin-4-yl)-2-((N-methylacrylamido)methyl)benzyl)-4,5,6,7-tetrahydrobenzo[b]thiophene-2-carboxamide], the IC50 was in the range of 0.1 to 0.999 µM.
As to `Cc1cc(-c2ccnc(N)n2)ccc1CNC(=O)c1cnc(C(C)C)s1` [Example I-86, N-(4-(2-aminopyrimidin-4-yl)-2-methylbenzyl)-2-isopropylthiazole-5-carboxamide], the IC50 was 0.01 to 0.099 µM.
Regarding `Cc1cc(-c2nc(N)ncc2F)ccc1CNC(=O)c1cnc(C(C)(C)C)s1` [Example I-110, N-(4-(2-amino-5-fluoropyrimidin-4-yl)-2-methylbenzyl)-2-(tert-butyl)thiazole-5-carboxamide], the concentration for half-maximal inhibition (IC50) was 0.01 to 0.099 µM.
As for `Cc1cc(-c2ccnc(Nc3cnn(C)c3)n2)ccc1CNC(=O)c1cnoc1C` [Example I-18, 5-methyl-N-(2-methyl-4-(2-((1-methyl-1H-pyrazol-4-yl)amino)pyrimidin-4-yl)benzyl)isoxazole-4-carboxamide], the IC50 is 0.1 to 0.999 µM.
With `Cc1nc(-c2ccnc(Nc3cnn(C)c3)n2)ccc1CNC(=O)c1cc2c(s1)CCOC2` [Example I-104, N-((2-methyl-6-(2-((1-methyl-1H-pyrazol-4-yl)amino)pyrimidin-4-yl)pyridin-3-yl)methyl)-6,7-dihydro-4H-thieno[3,2-c]pyran-2-carboxamide], the IC50 was 0.1 to 0.999 µM.
With `Cn1cc(Nc2nccc(-c3ccc4c(c3)CCC4NC(=O)c3cnc(C(C)(C)C)s3)n2)cn1` (stereo not drawn) [Example I-90, 2-(tert-butyl)-N-(5-(2-((1-methyl-1H-pyrazol-4-yl)amino)pyrimidin-4-yl)-2,3-dihydro-1H-inden-1-yl)thiazole-5-carboxamide], the IC50 was 0.01 to 0.099 µM.
The same measure, in the same setting: the same measure for `Cc1cc(-c2ccnc(N)n2)ccc1CNC(=O)c1cncs1` [Example I-84, N-(4-(2-aminopyrimidin-4-yl)-2-methylbenzyl)thiazole-5-carboxamide]: 1 to 10 µM; for `CC(C)(C)c1ncc(C(=O)NC2CCCc3cc(-c4ccnc(N)n4)ccc32)s1` (stereo not drawn) [Example I-136, N-(6-(2-aminopyrimidin-4-yl)-1,2,3,4-tetrahydronaphthalen-1-yl)-2-(tert-butyl)thiazole-5-carboxamide]: 0.01 to 0.099 µM; for `CN1CCn2nc(Nc3cc(-c4ccc5c(c4)CCCC5NC(=O)c4cnc(C(C)(C)C)s4)ncn3)cc2C1` (stereo not drawn) [Example I-134, 2-(tert-butyl)-N-(6-(6-((5-methyl-4,5,6,7-tetrahydropyrazolo[1,5-a]pyrazin-2-yl)amino)pyrimidin-4-yl)-1,2,3,4-tetrahydronaphthalen-1-yl)thiazole-5-carboxamide]: less than 0.01 µM.
Same read-out and setting: the result for `Cc1cc(-c2ccnc(NC3CCS(=O)(=O)CC3)n2)ccc1CNC(=O)c1cnc(C(C)(C)C)s1` [Example I-30, 2-(tert-butyl)-N-(4-(2-((1,1-dioxidotetrahydro-2H-thiopyran-4-yl)amino)pyrimidin-4-yl)-2-methylbenzyl)thiazole-5-carboxamide] reads 1 to 10 µM.

Another test addresses BTK (phospho-BTK) in human whole blood (Homo sapiens, UniProt Q06187). The experiment in a line: In vitro PD assay in human whole blood (pBTK assay).
Conditions: not given
`[2H]C([2H])([2H])C(OC1CN(C(=O)NCc2ccc(-c3ccnc(Nc4cnn(CC)c4)n3)cc2C)C1)C([2H])([2H])[2H]` [Example I-262, N-[[4-[2-[(1-ethylpyrazol-4-yl)amino]pyrimidin-4-yl]-2-methyl-phenyl]methyl]-3-(1,1,1,3,3,3-d6)isopropoxy-azetidine-1-carboxamide] gave a half-inhibitory concentration (IC50) of less than 0.5 µM.
